US11733243B2, “Use of acamprosate to modulate ERK1/2 activation in animal models for FXS and ASD and individuals diagnosed with FXS and ASD” (Indiana University Research and Technology Corporation, priority 2013, dated 2023)
Values joined by “and” are separate entries in the source; they are usually repeats but may differ in a detail not shown here. Equal values may be shown once.

Legend:
[1] = tested on: youths symptomatic for an autistic disorder; details: mean dose 1,110 mg/day, 10 to 30 weeks; cited from earlier work
[2] = tested on: patients diagnosed with FXS; experiment: 10-week open-label trial of acamprosate in youth with FXS: behavioral outcome measures; assay type: in vivo, human; parameters: key to mean CGI-I at endpoint: CGI-I score: 1 = very much improved, 2 = much improved; details: for Aberrant Behavior Checklist-Social Avoidance (ABC-SA), End point (mean ± SD): baseline 3.3 ± 2.6; for Clinical Global Impressions-Severity (CGI-S), End point (mean ± SD): baseline 4.25 ± 0.45; for Clinical Global Impressions-Severity (CGI-S), End point (mean ± SD) / ADHD Rating Scale 4th Edition (ADHD-RS), End point (mean ± SD): p<0.0001; for Aberrant Behavior Checklist-Social Withdrawal (ABC-SW), End point (mean ± SD): baseline 8.8 ± 5.8, p=0.04 (Table 5: 7.33 ± 5.2, p=0.014); for Aberrant Behavior Checklist-Hyperactivity (ABC-H), End point (mean ± SD): baseline 16.8 ± 9.1, p=0.009; for ADHD Rating Scale 4th Edition (ADHD-RS), End point (mean ± SD): baseline 23.6 ± 10.6; for Vineland Adaptive Behavior Scale (VABS) Communication Domain, End point (mean ± SD): baseline 63.4 ± 10.1, p=0.03; for VABS Expressive Communication Subdomain, End point (mean ± SD): baseline 69.8 ± 23.0; for Social Responsiveness Scale total score (SRS), End point (mean ± SD): baseline 91.3 ± 27.4, p=0.005
Text: The Institutional Review Board (IRB) at an academic medical center approved this study. Thirteen outpatient males and females aged 5 to 17 years with body weight≥15 kg were recruited for this study. Written informed consent was obtained from each participant's legal guardian (parent for all children in this report), and subjects provided assent when able. Diagnosis of FXS was confirmed by Southern Blot and PCR results consistent with a greater than 200 CGG repeat expansion in the fmr1 gene with at least partial gene methylation. Subjects had to be free of other significant medical conditions. The concomitant use of psychotropic drugs that are not thought to impact glutamate neurotransmission were allowed so long as the patients experienced stable dosing at least 4 weeks prior to baseline. Subjects were required to have a mental age of greater than 18 months as determined by the Stanford-Binet 5th Edition. Additional inclusion criteria included a CGI-S (Guy 1976) score of at least 4 (“Moderately Ill”). Subjects with a Diagnostic and Statistical Manual of Mental Disorders, 4th Edition, Text Revision (DSM-IV-TR) diagnosis of a psychotic disorder, bipolar disorder, or substance use disorder were excluded from the study. Additionally, subjects with a positive urine pregnancy test, creatinine clearance of <30, active seizure disorder, or other significant medical condition were excluded.
A 10-week, prospective, open-label study design was chosen to gather pilot data for potential future larger-scale, double-blind, placebo-controlled studies in this population.
All subjects underwent a screening and baseline visit followed by follow-up visits every 2 weeks during the 10-week open-label trial period. At the end of weeks 1, 3, and 5 the investigators called the parent to assess drug tolerability and to make dose adjustments as indicated. All subjects received 333 mg/day of acamprosate during the first week of the study. The investigators then increased the dosage to a maximum of 1,998 mg/day (weight>50 kg) or 1,332 mg/day (weight<50 kg) over the first six weeks of the study, if optimal clinical response (CGI-I equal to 1 “very much improved”) had not occurred and intolerable adverse effects had not emerged. The dose maintenance phase lasted 4 weeks at the optimal dosage.
The CGI-S assessment was administered at screen and at baseline as part of the eligibility criteria described above. In this study, the rater scored the CGI-S in regard to severity of symptoms commonly noted in FXS including, but not limited to, inattention/hyperactivity, social impairment, communication impairment, repetitive behavior, irritability, and anxiety. The CGI-S is rated on a scale from 1 to 7 (1=normal, not ill at all; 2=borderline ill; 3=mildly ill; 4=moderately ill; 5=markedly ill; 6=severely ill; 7=among the most extremely ill patients with FXS). The Autism Diagnostic Observation Schedule (ADOS) (Lord, Rutter et al. 1989) was administered at baseline to characterize potential concomitant ASD diagnosis.
The primary outcome measure was the CGI-I. The CGI-I is a scale designed to assess global change from baseline. […] Treatment response was defined by a CGI-I score of 1 “very much improved” or 2 “much improved.” In this study, the CGI-I was utilized as a general global primary outcome measure given the uncertainty as to what specific symptoms/behaviors associated with FXS may be expected to improve or worsen with use of acamprosate. The CGI-I was administered at all visits after baseline.
Secondary outcome measures included all subscales of the ABC (Irritability, Social Withdrawal, Stereotypy, Hyperactivity, and Inappropriate Speech). The ABC is an informant-rated (primary caregiver) measure with confirmed reliability and validity with regard to factor structure, distribution of scores, and sensitivity to change in persons with developmental disability (Aman, Singh et al. 1985). […]

[3] = safety measures and adverse effects in the FXS trial; assay type: in vivo, human
Text: Safety assessment and monitoring began at screen when all subjects underwent a medical history, physical examination, and full psychiatric interview. A physical examination was also completed at end point. Vital signs, including height and weight, were obtained at each study visit. At screen, genetic testing for FXS was obtained if record of molecular testing utilizing Southern Blot and PCR was not available. At screen, week 6, and endpoint, laboratory tests of blood and urine, including CBC with differential and platelets, electrolyte panel, liver associated enzymes, lipid panel, and urine pregnancy test (in females) were obtained. An electrocardiogram was also obtained at screen and endpoint.
The pilot study ran for 10 weeks. Safety lab screens were carried out at weeks 6 and 10. Physiologic parameters measured during the safety screens were as follows: vital signs, LFTs, electrolyte panels, CBC with diff/plts, lipid panel, glucose, urinalysis and ECG.
In-person clinical visits were scheduled for every two weeks. Telephonic evaluations were carried out at weeks 1, 3, and 5. Each subject was evaluated for side effects at every interaction with the practitioner.

NMDA glutamate receptor = details: animal studies; cited from earlier work
alcohol intake = details: mouse, in vivo; cited from earlier work
[4] = FXS, n=12, 10 weeks, listed as acamprosate
[5] = FXS, mean change from baseline to endpoint divided by SD at baseline

CC(=O)NCCCS(=O)(=O)O [Acamprosate, 3-Acetamidopropane-1-sulfonic acid]
youths judged treatment responders [1]: five of six | Treatment responders (CGI-I score of 1 very much improved or 2 much improved) ([2]; 12 youth with FXS, 10 weeks, mean final dose 1054 mg/day): 75% | Other subscales of the ABC and the CY-BOCS-PDD ([2]; FXS, 10 weeks): did not change significantly during treatment | SRS Social Awareness and Autistic Mannerisms subscales ([2]; FXS, 10 weeks): Improvement was not noted | decline of mean ABC-H score, baseline to endpoint ([2]; FXS, 10 weeks): 35% | decline of mean ABC-SA score, baseline to endpoint ([2]; FXS, 10 weeks): 51% | decline of mean ABC-SW score, baseline to endpoint ([2]; FXS, 10 weeks): 53% | decline of mean ADHD-RS score, baseline to endpoint ([2]; FXS, 10 weeks): 29% | decline of mean total SRS raw score, baseline to endpoint ([2]; FXS, 10 weeks): 16% | improvement of mean VABS Communication Domain standard score ([2]; FXS, 10 weeks): 5% | improvement of mean VABS Expressive Communication score ([2]; FXS, 10 weeks): 13% | other domains of the VABS ([2]; FXS, 10 weeks): No other changes with treatment were noted | Peabody Picture Vocabulary Test (PPVT), End point (mean ± SD) ([2]; FXS, 10 weeks, baseline 85.2 ± 32.0, p=0.53): did not significantly change with treatment | decline of SRS Social Motivation subscale ([2]; FXS, 10 weeks, p=0.003): 28% | decline of SRS Social Cognition subscale ([2]; FXS, 10 weeks, p=0.01): 19% | decline of SRS Social Communication subscale ([2]; FXS, 10 weeks, p=0.01): 14% | mean CGI-I at endpoint ([2]; FXS, Week 10, scale 1-7): 1.92 and 1.9 | Aberrant Behavior Checklist-Social Avoidance (ABC-SA), End point (mean ± SD) ([2]; FXS, n=12, 10 weeks, p=0.01): 1.6 ± 2.7 | Aberrant Behavior Checklist-Social Avoidance (ABC-SA), End point (mean ± SD) ([2]; FXS, n=12, 10 weeks, p=0.01, listed as acamprosate): 1.6 | Clinical Global Impressions-Severity (CGI-S), End point (mean ± SD) ([2]; FXS, n=12, 10 weeks): 3.33 ± 0.5 and 3.33 ± 0.49 | Clinical Global Impressions-Severity (CGI-S), End point (mean ± SD) [2, 4]: 3.33 | Aberrant Behavior Checklist-Inappropriate Speech (ABC-IS), End point (mean ± SD) ([2]; FXS, n=12, 10 weeks, baseline 5.2 ± 3.5, p=0.61): 4.8 ± 3.4 | Aberrant Behavior Checklist-Social Withdrawal (ABC-SW), End point (mean ± SD) ([2]; FXS, n=12, 10 weeks): 4.1 ± 6.5 | Aberrant Behavior Checklist-Social Withdrawal (ABC-SW), End point (mean ± SD) [2, 4]: 4.1 | Aberrant Behavior Checklist-Irritability (ABC-I), End point (mean ± SD) ([2]; FXS, n=12, 10 weeks, baseline 9.9 ± 7.8, p=0.11): 7.0 ± 8.9 | Children's Yale-Brown Obsessive Compulsive Scale Modified for PDD (CY-BOCS-PDD), End point (mean ± SD) ([2]; FXS, n=12, 10 weeks, baseline 11.1 ± 2.6, p=0.15): 9.8 ± 4.1 | Aberrant Behavior Checklist-Hyperactivity (ABC-H), End point (mean ± SD) ([2]; FXS, n=12, 10 weeks): 11.0 ± 8.6 | Aberrant Behavior Checklist-Hyperactivity (ABC-H), End point (mean ± SD) [2, 4]: 11.0 | ADHD Rating Scale 4th Edition (ADHD-RS), End point (mean ± SD) ([2]; FXS, n=12, 10 weeks): 16.7 ± 8 | ADHD Rating Scale 4th Edition (ADHD-RS), End point (mean ± SD) [2, 4]: 16.7 | Vineland Adaptive Behavior Scale (VABS) Communication Domain, End point (mean ± SD) ([2]; FXS, n=12, 10 weeks): 66.6 ± 11.2 | Vineland Adaptive Behavior Scale (VABS) Communication Domain, End point (mean ± SD) [2, 4]: 66.6 | VABS Expressive Communication Subdomain, End point (mean ± SD) ([2]; FXS, n=12, 10 weeks, p=0.003): 78.9 ± 21.2 | VABS Expressive Communication Subdomain, End point (mean ± SD) ([2]; FXS, n=12, 10 weeks, p=0.003, listed as acamprosate): 78.9 | Social Responsiveness Scale total score (SRS), End point (mean ± SD) ([2]; FXS, n=12, 10 weeks): 76.4 ± 26.8 and 76.42 ± 26.8 | Social Responsiveness Scale total score (SRS), End point (mean ± SD) [2, 4]: 76.4 | Effect Size, ABC-H [2, 5]: 0.64 | Effect Size, ABC-SA [2, 5]: 0.64 | Effect Size, ABC-SW [2, 5]: 0.81 | Effect Size, ADHD-RS [2, 5]: 0.65 | Effect Size, CGI-S [2, 5]: 2.0 | Effect Size, SRS total score [2, 5]: 0.54 | Effect Size, VABS Communication Domain [2, 5]: 0.32 | Effect Size, VABS Expressive Communication Subdomain [2, 5]: 0.4 | Effect Size, VABS Communication Domain ([2]; FXS, mean change from baseline to endpoint divided by SD at baseline, listed as acamprosate): 0.3 | youth judged responders to acamprosate (of those treated) ([2]; youth with FXS, pre-specified indicators of clinical response): 9 of 12 | changes in lipids, electrolytes, liver function tests, or blood counts ([3]; 10 weeks): no clinically significant or mean changes | changes in weight, pulse, or blood pressure ([3]; 10 weeks): No clinically significant changes | Increased body rocking (mild), Number of Patients ([3]; 12 subjects): 1 | subjects who experienced a mild adverse event ([3]; 12 subjects): 75% | tolerability ([3]; 12 subjects, 10 weeks): well tolerated overall, with no severe or serious adverse effects | changes on ECG including QTc interval ([3]; screen vs endpoint): No clinically significant changes were noted on ECG | action at the NMDA glutamate receptor (NMDA glutamate receptor): bind and act as an antagonist at the NMDA glutamate receptor | alcohol intake (alcohol intake): reduced alcohol intake
